# Experimental data taken from patent US10654895B2, “Polypeptide, DNA molecule encoding the polypeptide, vector, preparation method and use” (WUHAN MORE BIOTECHNOLOGY CO., LTD., priority 2013, dated 2020).
# “And” between values parts separate entries of the source, which are not always exact repeats. Equal values may be shown once. Read-outs that look alike come from different tables or passages of the source. No end group written: not given here.
# Assays:
# [1] = tested on: Staphylococcus aureus (RA) ATCC25923; conditions: Staphylococcus aureus (RA) ATCC25923; >25 means greater than or equal to 50 μg/mL
# [2] = tested on: Escherichia coli (E. coli) ATCC25922; conditions: >25 means greater than or equal to 50 μg/mL
# Clostridium tetani = type: cell-based
# Clostridium perfringens = type: cell-based
# Bacteroides fragilis = experiment: Bacteriostasis experiment on anaerobic bacterium, 96-well plate MIC; type: cell-based
# M. tuberculosis = experiment: MIC test by the third party; type: cell-based, Mycobacterium tuberculosis
# [3] = tested on: Methicillin-resistant Staphylococcus aureus (MRSA)
# [4] = tested on: methicillin-resistant coagulase-negative staphylococci (MRSCNS)
# [5] = tested on: methicillin-sensitive coagulase-negative staphylococci (MSSCNS)
# [6] = tested on: Streptococcus hemolyticus / S. pyogenes (β-hemolytic streptococcus); conditions: for Minimum inhibitory concentration MIC: test by the third party
# Neisseria meningitidis = conditions: N. meningitidis
# Neisseria gonorrhoeae = conditions: N. gonorrhoeae
# [7] = tested on: Shigella dysentery (dysentery bacilli)
# Klebsiella pneumoniae = conditions: K. pneumoniae
# Serratia fonticola = conditions: S. fonticola
# [8] = tested on: Corynebacterium diphtheriae; conditions: C. diphtheriae
# Corynebacterium acnes = conditions: C. acnes
# Acinetobacter baumannii = conditions: A. baumannii (clinically isolated strain, 2 strains in Table 3)
# Bordetella pertussis = conditions: B. pertussis
# Haemophilus influenza = conditions: H. influenzae
# [9] = standard Escherichia coli (Table 2)
# [10] = standard Staphylococcus aureus (Table 2)
# [11] = Escherichia coli, strain not specified (Table 8)
# [12] = Methicillin-resistant Staphylococcus aureus (Table 8)
# [13] = Pseudomonas aeruginosa, strain not specified (Table 8)
# [14] = Staphylococcus aureus (methicillin-sensitive), strain not specified (Table 8)
sequence,measurement,setting,value
"FIKIAKLLRIF [Ctryamp-1, FIKIAKLLRIF]",Minimum inhibitory concentration MIC,Escherichia coli; [9],6.25 µg/mL
same,Minimum inhibitory concentration MIC,Staphylococcus aureus; [10],6.25 µg/mL
"FIHIARLLRIF [Ctryamp-R3H, FIHIARLLRIF]",Minimum inhibitory concentration MIC,Escherichia coli; [9],6.25 µg/mL
same,Minimum inhibitory concentration MIC,Staphylococcus aureus; [10],6.25 µg/mL
"FIRIAHLLRIF [Ctryamp-R5H, FIRIAHLLRIF]",Minimum inhibitory concentration MIC,Escherichia coli; [9],12.5 µg/mL
same,Minimum inhibitory concentration MIC,Staphylococcus aureus; [10],6.25 µg/mL
"FIKIARLLKIF [Ctryamp-2, FIKIARLLKIF]",Minimum inhibitory concentration MIC,Escherichia coli; [9],6.25 µg/mL
same,Minimum inhibitory concentration MIC,Staphylococcus aureus; [10],12.5 µg/mL
same,MIC,[1],12.5 µg/mL
same,MIC,[2],12.5 µg/mL
"FIHIAKLLRIF [Ctryamp-7, FIHIAKLLRIF]",Minimum inhibitory concentration MIC,Escherichia coli; [9],12.5 µg/mL
same,Minimum inhibitory concentration MIC,Staphylococcus aureus; [10],6.25 µg/mL
"FIRIARLLKIF [Ctryamp-R9K, FIRIARLLKIF]",Minimum inhibitory concentration MIC,Escherichia coli; [9],12.5 µg/mL
same,Minimum inhibitory concentration MIC,Staphylococcus aureus; [10],6.25 µg/mL
"FIRIARLLRIF [Ctryamp, FIRIARLLRIF]",Minimum inhibitory concentration MIC,Clostridium tetani,25 µg/mL
same,Minimum inhibitory concentration MIC,Clostridium perfringens,25 µg/mL
same,Minimum inhibitory concentration MIC,Bacteroides fragilis,12.5 µg/mL
same,Minimum inhibitory concentration MIC,M. tuberculosis,25 µg/mL
same,Minimum inhibitory concentration MIC,"Escherichia coli; ATCC25922 (non-ESBLs-producing), test by the third party",4 µg/mL
same,Minimum inhibitory concentration MIC,"Escherichia coli; ATCC35218 (ESBLs-producing), test by the third party",4 µg/mL
same,Minimum inhibitory concentration MIC,Escherichia coli; E. coli ATCC25922 (standard strain),6.25 µg/mL
same,Minimum inhibitory concentration MIC,"Escherichia coli; E. coli clinically isolated strain, 8 strains",6.25 to 12.5 µg/mL
same,Minimum inhibitory concentration MIC,"Escherichia coli; ESBLs-producing E. coli, 10 strains, test by the third party",4 to 8 µg/mL
same,Minimum inhibitory concentration MIC,Escherichia coli; [11],6.25 to 12.5 µg/mL and 6.25 µg/mL
same,inhibition rate,"Escherichia coli; at 6.25 μg/mL, Escherichia coli CCTCCAB94012",100%
same,Minimum inhibitory concentration MIC,"Escherichia coli; non-ESBLs-producing E. coli, 4 strains, test by the third party",4 to 8 µg/mL
same,Minimum inhibitory concentration MIC,Escherichia coli; [9],12.5 µg/mL
same,Minimum inhibitory concentration MIC,"Staphylococcus aureus; S. aureus ATCC 29213, test by the third party",8 µg/mL
same,Minimum inhibitory concentration MIC,"Staphylococcus aureus; S. aureus clinically isolated strain, 17 strains",1.63 to 6.25 µg/mL
same,Minimum inhibitory concentration MIC,Staphylococcus aureus; S. aureus standard strain ATCC25923,6.25 µg/mL
same,inhibition rate,"Staphylococcus aureus; at 6.25 μg/mL, Staphylococcus aureus CCTCCAB94004",100%
same,Minimum inhibitory concentration MIC,Staphylococcus aureus; [10],6.25 µg/mL
same,Minimum inhibitory concentration MIC,"[3]; MRSA, 5 strains",3.13 to 12.5 µg/mL
same,Minimum inhibitory concentration MIC,"[3]; MRSA, 11 strains, test by the third party",4 to 8 µg/mL
same,Minimum inhibitory concentration MIC,[3]; [12],6.25 µg/mL
same,Minimum inhibitory concentration MIC,"[4]; 11 strains, test by the third party",4 µg/mL
same,Minimum inhibitory concentration,"[4]; stated jointly with MRSA, 4-8 = test results from the third party",3.13 to 12.5 µg/mL and 4 to 8 µg/mL
same,Minimum inhibitory concentration MIC,"[5]; MSSCNS, 5 strains, test by the third party",4 µg/mL
same,MIC,[5]; methicillin-sensitive coagulase-negative staphylococci,3.13 to 12.5 µg/mL
same,Minimum inhibitory concentration MIC,S. pneumoniae,3.13 µg/mL
same,Minimum inhibitory concentration MIC,S. agalactiae,25 µg/mL
same,Minimum inhibitory concentration MIC,"[6]; Erythromycin-resistant S. pyogenes, 11 strains",8 to 16 µg/mL
same,Minimum inhibitory concentration MIC,"[6]; Erythromycin-sensitive S. pyogenes, 4 strains",16 µg/mL
same,Minimum inhibitory concentration MIC,[6]; Streptococcus ATCC 19615 (standard strain),8 µg/mL
same,MIC,[6]; Streptococcus hemolyticus,8 to 16 µg/mL
same,Minimum inhibitory concentration MIC,E. faecium,25 µg/mL
same,Minimum inhibitory concentration MIC,E. faecalis,50 µg/mL
same,MIC,Enterococcus,6.25 µg/mL
same,Minimum inhibitory concentration MIC,Neisseria meningitidis,6.25 µg/mL
same,Minimum inhibitory concentration MIC,Neisseria gonorrhoeae,6.25 µg/mL
same,Minimum inhibitory concentration MIC,[7],6.25 µg/mL and 6.5 µg/mL
same,Minimum inhibitory concentration MIC,Salmonella typhimurium,12.5 µg/mL
same,Minimum inhibitory concentration MIC,Klebsiella pneumoniae,25 µg/mL
same,Minimum inhibitory concentration MIC,K. oxytoca,12.5 µg/mL
same,Minimum inhibitory concentration MIC,Citrobacter,12.5 µg/mL
same,Minimum inhibitory concentration MIC,E. cloacae,12.5 µg/mL
same,Minimum inhibitory concentration MIC,Serratia fonticola,12.5 µg/mL
same,Minimum inhibitory concentration MIC,[8],3.13 µg/mL
same,Minimum inhibitory concentration MIC,Corynebacterium acnes,3.13 µg/mL
same,Minimum inhibitory concentration MIC,"Pseudomonas aeruginosa; P. aeruginosa ATCC27853 (standard strain), test by the third party",8 µg/mL
same,Minimum inhibitory concentration MIC,"Pseudomonas aeruginosa; P. aeruginosa IPM-R strain, 8 strains, test by the third party",8 to 16 µg/mL
same,Minimum inhibitory concentration MIC,"Pseudomonas aeruginosa; P. aeruginosa IPM-S strain, 4 strains, test by the third party",8 to 16 µg/mL
same,Minimum inhibitory concentration MIC,Pseudomonas aeruginosa; [13],8 µg/mL
same,Minimum inhibitory concentration MIC,Acinetobacter baumannii,12.5 µg/mL
same,Minimum inhibitory concentration MIC,Bordetella pertussis,3.13 µg/mL
same,Minimum inhibitory concentration MIC,Haemophilus influenza,3.13 µg/mL
same,MIC,Proteusbacillus vulgaris,6.25 µg/mL
"FIKRIARLLRKIF [BmKAMP1-M, reference compound]",Minimum inhibitory concentration MIC,Escherichia coli; [11],12.5 µg/mL
same,Minimum inhibitory concentration MIC,Staphylococcus aureus; [14],12.5 µg/mL
same,Minimum inhibitory concentration MIC,[3]; [12],6.25 µg/mL
same,Minimum inhibitory concentration MIC,Pseudomonas aeruginosa; [13],50 µg/mL
"FIRIAKLLKIF [Ctryamp-3, FIRIAKLLKIF]",Minimum inhibitory concentration MIC,Escherichia coli; [9],12.5 µg/mL
same,Minimum inhibitory concentration MIC,Staphylococcus aureus; [10],6.25 µg/mL
same,MIC,[1],12.5 µg/mL
same,MIC,[2],12.5 µg/mL
"FIRIARLLHIF [Ctryamp-R9H, FIRIARLLHIF]",Minimum inhibitory concentration MIC,Escherichia coli; [9],6.25 µg/mL
same,Minimum inhibitory concentration MIC,Staphylococcus aureus; [10],6.25 µg/mL
"FIKIARLLRIF [Ctryamp-R3K, FIKIARLLRIF]",Minimum inhibitory concentration MIC,Escherichia coli; [9],12.25 µg/mL
same,Minimum inhibitory concentration MIC,Staphylococcus aureus; [10],6.25 µg/mL
"FIGAIARLLRKIF [ABP-W1, reference compound]",Minimum inhibitory concentration MIC,Escherichia coli; [11],>100 µg/mL
same,Minimum inhibitory concentration MIC,Staphylococcus aureus; [14],3.13 µg/mL
same,Minimum inhibitory concentration MIC,[3]; [12],8 µg/mL
same,Minimum inhibitory concentration MIC,Pseudomonas aeruginosa; [13],>100 µg/mL
"FIRIAKLLRIF [Ctryamp-R5K, FIRIAKLLRIF]",Minimum inhibitory concentration MIC,Escherichia coli; [9],6.25 µg/mL
same,Minimum inhibitory concentration MIC,Staphylococcus aureus; [10],6.25 µg/mL
"FIHIAHLLRIF [Ctryamp-5, FIHIAHLLRIF]",Minimum inhibitory concentration MIC,Escherichia coli; [9],6.25 µg/mL
same,Minimum inhibitory concentration MIC,Staphylococcus aureus; [10],12.5 µg/mL
"FIHIARLLHIF [Ctryamp-6, FIHIARLLHIF]",Minimum inhibitory concentration MIC,Escherichia coli; [9],6.25 µg/mL
same,Minimum inhibitory concentration MIC,Staphylococcus aureus; [10],6.25 µg/mL
"FIRIAKLLHIF [Ctryamp-8, FIRIAKLLHIF]",Minimum inhibitory concentration MIC,Escherichia coli; [9],12.5 µg/mL
same,Minimum inhibitory concentration MIC,Staphylococcus aureus; [10],6.25 µg/mL
"FIKIAKLLKIF [Ctryamp-4, FIKIAKLLKIF]",Minimum inhibitory concentration MIC,Escherichia coli; [9],6.25 µg/mL
same,Minimum inhibitory concentration MIC,Staphylococcus aureus; [10],12.5 µg/mL
same,MIC,[1],25 µg/mL
same,MIC,[2],12.5 µg/mL
"FIGAIARLLSKIF [BmKAMP1, reference compound]",Minimum inhibitory concentration MIC,Escherichia coli; [11],>100 µg/mL
same,Minimum inhibitory concentration MIC,Staphylococcus aureus; [14],3.13 µg/mL
same,Minimum inhibitory concentration MIC,[3]; [12],12.5 µg/mL
same,Minimum inhibitory concentration MIC,Pseudomonas aeruginosa; [13],>100 µg/mL
"FIKIGKILKIF [Ctryamp polypeptide mutant 7, FIKIGKILKIF]",MIC,[1],>25 µg/mL
same,MIC,[2],12.5 µg/mL
"FIRRLRIF [Ctryamp polypeptide mutant 13, FIRRLRIF]",MIC,[1],>25 µg/mL
same,MIC,[2],>25 µg/mL
"FIRIADLLRIF [Ctryamp polypeptide mutant 2, FIRIADLLRIF]",MIC,[1],25 µg/mL
same,MIC,[2],>25 µg/mL
